The subject of data set [1] is B16 melanoma cells. The data set can be described thus: Early-stage cancer: rate of increase in tumor volume in B16 melanoma-transplanted mice. As to conditions: CDDP 0.9 mM, 0.2 ml/mouse/dose via tail vein. The class given is in vivo, ICR mice. How it is done: Five female, six-week-old IRC mice were assigned per group.
iron porphyrin complex/PLLA60wt%-F88 micelles (polymer capsule, 5 mM/0.7 wt %) were used.
As the sample drug (concentration) of the comparative example, CDDP (0.9 mM) was used.
(§1) B16 melanoma cells were used.
The amount of cancer cells injected was 1×10^5/mouse/0.05 ml, which is 1/10 that for end-stage cancer.
Anchoring of the cancer was confirmed on the 10th day after cancer cell transplantation. The mice were separated into five mice each for the required number of groups (three groups: two groups for the sample drugs and one control group). At the same time, the short diameter and the long diameter of the cancer cell volume in each mouse were measured every two days using calipers. The following equation was calculated:
(§2) [tumor volume]=½×[long diameter]×[short diameter]^2

A short description of data set [2]: End-stage cancer experiment: weight fluctuation, death and side effects. How it is done:
Five female, six-week-old C57BL/6CrSlC mice were assigned per group.
B16 melanoma dispersed in phosphate buffered saline (PBS) was injected into the foot pads (sole) of the mice (C57BL/6, female, six-weeks-old), and cancer was transplanted. The amount of cancer cells injected was 1×10^6/mouse/0.05 ml. The site of injection was within the limited area of the foot pad, in an environment where numerous fine blood vessels, such as capillaries, are present.
In addition, administration of the sample drugs (administered amount: 0.1 ml/mouse/dose) was started on the 13th day after cancer cell transplantation. Drug administration was conducted a total of four times, via tail vein every four days. The weight of each mouse was measured every two days.

Data set [3] concerns B16 melanoma cells. The data set can be described thus: End-stage cancer: rate of increase in tumor volume in B16 melanoma-transplanted mice. Format: in vivo, C57BL/6CrSlC mice. How it is done: iron porphyrin complex/pH-sensitive liposomes (5 mM/36 mM) and iron porphyrin complex/DPPC-PEG liposomes (5 mM/36 mM) were used […]
as §1
Anchoring of the cancer was confirmed on the 10th day after cancer cell transplantation. The mice were separated into five mice each for the required number of groups (four groups: three groups for the sample drugs and one control group). At the same time, the short diameter and the long diameter of the cancer cell volume in each mouse were measured every two days using calipers. The following equation was calculated:
as §2

This note sets out measurements from US20130189347A1, “DISEASE TREATMENT DRUG” (priority 2010, published 2013).

On to `[NH2][Pt]([NH2])([Cl])[Cl]` [CDDP, Cisplatin], for which the “suppression of increase in tumor volume” value in the data set on B16 melanoma cells [1] is “about ten”.

For `CO[C@@]12[C@H](COC(N)=O)C3=C(C(=O)C(C)=C(N)C3=O)N1C[C@@H]1N[C@@H]12` [MMC, mitomycin], the mice that died result in data set [2] (during 20 days of observation, five mice per group, MMC 0.9 mM, 0.5 mM) was “two”. Moreover, in data set [2] (end-stage cancer, weight measured every two days, FIG. 5), the “weight increase and decrease (weight fluctuation)” value is “severe weight fluctuations”. For the same molecule, the “observation of the transplanted foot” value in the data set with B16 melanoma cells [3] is reported as “necrosis occurred in the foot itself”. Besides, the “course of tumor volume” value in the data set with B16 melanoma cells [3] (four days after administration of the drug) is given as “sudden increase in tumor volume”.
